In general, MIC80 refers to an inhibitory concentration at the 80% level, which refers to growth in some studies and to a panel of isolates in others. Read a low MIC80 as greater potency.

The source of these data is ChEMBL document CHEMBL1139935, “Discovery of novel indazole-linked triazoles as antifungal agents” (2007).

The subject of assay [1] is Cryptococcus neoformans. Kind of assay: Antifungal activity against Cryptococcus neoformans ATCC 24065 by broth microdilution assay. A general note: Dilution methods test growth across graded concentrations, often in twofold steps.
Assay [2] has as its system Aspergillus flavus. The experiment in a line: Antifungal activity against Aspergillus flavus ATCC MYA-1004 by broth microdilution assay. Type of assay: functional.
Assay [3] has as its system Nakaseomyces glabratus. Kind of assay: Antifungal activity against Candida glabrata ATCC 34138 by broth microdilution assay. The class given is functional.
In assay [4] the test system is Aspergillus niger. The experiment in a line: Antifungal activity against Aspergillus niger ATCC 9042 by broth microdilution assay. The class given is functional.
Assay [5] relates to Aspergillus terreus. The experiment in a line: Antifungal activity against Aspergillus terreus ATCC 28301 by broth microdilution assay. The class given is functional.
Assay [6] concerns Candida parapsilosis. The experiment in a line: Antifungal activity against Candida parapsilosis ATCC 21019 by broth microdilution assay. The class given is functional. To be noted: Lodderomyces parapsilosis.
The test system of assay [7] is Pichia kudriavzevii. Kind of assay: Antifungal activity against Candida krusei ATCC 6528 by broth microdilution assay. The class given is functional.
Assay [8] deals with Candida albicans. The experiment in a line: Antifungal activity against Candida albicans ATCC 36082 by broth microdilution assay. The class given is functional.
Assay [9] relates to Clavispora lusitaniae. The experiment in a line: Antifungal activity against Candida lusitaniae ATCC 42720 by broth microdilution assay. Type of assay: functional.
For assay [10], the system named is Aspergillus fumigatus. The experiment in a line: Antifungal activity against Aspergillus fumigatus ATCC 16424 by broth microdilution assay. The class given is functional.
For assay [11], the system named is Candida tropicalis. The experiment in a line: Antifungal activity against Candida tropicalis ATCC 750 by broth microdilution assay. Type of assay: functional.

Values after ≈ are worked out from the molar mass of the structure shown.

With `C[C@@H](n1cnc2cc(Cl)ccc2c1=O)[C@](O)(Cn1cncn1)c1ccc(F)cc1F` [ALBACONAZOLE], the MIC80 in assay [1] is ≤ 0.015 µg/mL; in [2], 0.5 µg/mL (≈ 1.16 µM); in assay [3] it was 8 µg/mL (≈ 18.5 µM); in assay [4], 2 µg/mL (≈ 4.63 µM); in assay [5] it was 1 µg/mL (≈ 2.32 µM); in [6], ≤ 0.015 µg/mL. Further, the MIC80 in assay [7] was 0.25 µg/mL (≈ 0.579 µM); in [8] it was ≤ 0.015 µg/mL; in assay [9], ≤ 0.015 µg/mL; in [10], 0.5 µg/mL (≈ 1.16 µM); in assay [11], 0.031 µg/mL (≈ 0.0718 µM).

Turning to `C[C@@H](c1ncncc1F)[C@](O)(Cn1cncn1)c1ccc(F)cc1F` [VORICONAZOLE], the MIC80 in assay [1] came to 0.125 µg/mL (≈ 0.358 µM); in assay [2], 0.5 µg/mL (≈ 1.43 µM); in assay [3] it was 4 µg/mL (≈ 11.5 µM); in assay [4], 1 µg/mL (≈ 2.86 µM); in assay [5] it was 1 µg/mL (≈ 2.86 µM); in assay [6], 0.25 µg/mL (≈ 0.716 µM). In addition, the MIC80 in [7] is 1 µg/mL (≈ 2.86 µM); in [8], ≤ 0.015 µg/mL; in [9] it was 0.063 µg/mL (≈ 0.18 µM); in assay [10], 0.25 µg/mL (≈ 0.716 µM); in assay [11], 0.25 µg/mL (≈ 0.716 µM).

Take `C[C@@H](n1ncc2cc(Br)ccc21)[C@](O)(Cn1cncn1)c1ccc(F)cc1F`: the MIC80 in assay [1] was ≤ 0.015 µg/mL; in assay [2], 4 µg/mL (≈ 8.92 µM); in assay [3], 4 µg/mL (≈ 8.92 µM); in assay [4] it was 4 µg/mL (≈ 8.92 µM); in assay [5] it was 4 µg/mL (≈ 8.92 µM); in assay [6], 0.125 µg/mL (≈ 0.279 µM). Moreover, the MIC80 in assay [7] was 2 µg/mL (≈ 4.46 µM); in assay [8] it was ≤ 0.015 µg/mL; in assay [9], ≤ 0.015 µg/mL; in [10], 2 µg/mL (≈ 4.46 µM); in assay [11] it was 1 µg/mL (≈ 2.23 µM).

On to `C[C@@H](n1ncc2cc(N(C)C)ccc21)[C@](O)(Cn1cncn1)c1ccc(F)cc1F`, for which the MIC80 in assay [1] stood at 0.25 µg/mL (≈ 0.606 µM); in assay [2], 1 µg/mL (≈ 2.42 µM); in assay [3] it was 8 µg/mL (≈ 19.4 µM); in [4], 2 µg/mL (≈ 4.85 µM); in [5], 2 µg/mL (≈ 4.85 µM); in [6] it was 0.5 µg/mL (≈ 1.21 µM). Also, the MIC80 stood at 1 µg/mL (≈ 2.42 µM) in assay [7]; 0.063 µg/mL (≈ 0.153 µM) in [8]; 0.063 µg/mL (≈ 0.153 µM) in assay [9]; 1 µg/mL (≈ 2.42 µM) in assay [10]; 0.5 µg/mL (≈ 1.21 µM) in assay [11].

As for `C[C@@H](n1cc2ccc([N+](=O)[O-])cc2n1)[C@](O)(Cn1cncn1)c1ccc(F)cc1F`, the MIC80 is 0.5 µg/mL (≈ 1.21 µM) in assay [1]; 32 µg/mL (≈ 77.2 µM) in assay [2]; > 8 µg/mL in [3]; 64 µg/mL (≈ 154 µM) in assay [4]; 128 µg/mL (≈ 309 µM) in assay [5]; 0.25 µg/mL (≈ 0.603 µM) in assay [6]. Moreover, the MIC80 is > 8 µg/mL in assay [7]; 0.063 µg/mL (≈ 0.152 µM) in assay [8]; 0.5 µg/mL (≈ 1.21 µM) in assay [9]; 32 µg/mL (≈ 77.2 µM) in assay [10]; 8 µg/mL (≈ 19.3 µM) in assay [11].

As for `C[C@@H](n1ncc2ccc([N+](=O)[O-])cc21)[C@](O)(Cn1cncn1)c1ccc(F)cc1F`, the MIC80 in assay [1] was 0.25 µg/mL (≈ 0.603 µM); in assay [2], 2 µg/mL (≈ 4.83 µM); in [3] it was 8 µg/mL (≈ 19.3 µM); in assay [4], 4 µg/mL (≈ 9.65 µM); in assay [5] it was 2 µg/mL (≈ 4.83 µM); in [6], ≤ 0.015 µg/mL. Also, the MIC80 in [7] was 0.5 µg/mL (≈ 1.21 µM); in assay [8], ≤ 0.015 µg/mL; in [9] it was ≤ 0.015 µg/mL; in [10] it was 2 µg/mL (≈ 4.83 µM); in assay [11], ≤ 0.015 µg/mL.

Turning to `Cc1nn([C@H](C)[C@](O)(Cn2cncn2)c2ccc(F)cc2F)c2cc(F)ccc12`, the MIC80 was 0.5 µg/mL (≈ 1.25 µM) in assay [1]; > 16 µg/mL in assay [2]; > 8 µg/mL in assay [3]; > 16 µg/mL in assay [4]; > 16 µg/mL in assay [5]; 0.5 µg/mL (≈ 1.25 µM) in assay [6]. The MIC80 in assay [7] was 8 µg/mL (≈ 19.9 µM); in [8], 0.031 µg/mL (≈ 0.0772 µM); in assay [9], 0.25 µg/mL (≈ 0.623 µM); in [10], 16 µg/mL (≈ 39.9 µM); in assay [11] it was > 8 µg/mL.

For `C[C@@H](n1ncc2cc(Cl)ccc21)[C@](O)(Cn1cncn1)c1ccc(F)cc1F`, the MIC80 in assay [1] was found to be 0.031 µg/mL (≈ 0.0768 µM); in [2], 4 µg/mL (≈ 9.91 µM); in [3], 4 µg/mL (≈ 9.91 µM); in assay [4], 8 µg/mL (≈ 19.8 µM); in assay [5], 4 µg/mL (≈ 9.91 µM); in [6] it was 0.125 µg/mL (≈ 0.31 µM). For the same molecule, the MIC80 is 2 µg/mL (≈ 4.95 µM) in assay [7]; ≤ 0.015 µg/mL in [8]; ≤ 0.015 µg/mL in assay [9]; 2 µg/mL (≈ 4.95 µM) in assay [10]; 0.5 µg/mL (≈ 1.24 µM) in assay [11].

Take `C[C@@H](n1ncc2c([N+](=O)[O-])cccc21)[C@](O)(Cn1cncn1)c1ccc(F)cc1F`: the MIC80 is 0.031 µg/mL (≈ 0.0748 µM) in [1]; 2 µg/mL (≈ 4.83 µM) in assay [2]; 2 µg/mL (≈ 4.83 µM) in assay [3]; 2 µg/mL (≈ 4.83 µM) in [4]; 1 µg/mL (≈ 2.41 µM) in assay [5]; 0.031 µg/mL (≈ 0.0748 µM) in [6]. Further, the MIC80 is 1 µg/mL (≈ 2.41 µM) in [7]; ≤ 0.015 µg/mL in [8]; ≤ 0.015 µg/mL in assay [9]; 1 µg/mL (≈ 2.41 µM) in assay [10]; ≤ 0.015 µg/mL in [11].

For the molecule `C[C@@H](n1cc2cc(Cl)ccc2n1)[C@](O)(Cn1cncn1)c1ccc(F)cc1F`, the MIC80 is 0.015 µg/mL (≈ 0.0371 µM) in assay [1]; 0.5 µg/mL (≈ 1.24 µM) in assay [2]; 4 µg/mL (≈ 9.91 µM) in [3]; 1 µg/mL (≈ 2.48 µM) in [4]; 0.5 µg/mL (≈ 1.24 µM) in [5]; ≤ 0.015 µg/mL in assay [6]. The MIC80 in assay [7] is 0.125 µg/mL (≈ 0.31 µM); in assay [8], ≤ 0.015 µg/mL; in [9], ≤ 0.015 µg/mL; in assay [10], 0.25 µg/mL (≈ 0.619 µM); in [11] it was 0.031 µg/mL (≈ 0.0768 µM).

As to `C[C@@H](n1nc(-c2ccccc2)c2cc([N+](=O)[O-])ccc21)[C@](O)(Cn1cncn1)c1ccc(F)cc1F`, in assay [8], the MIC80 is 2 µg/mL (≈ 4.08 µM).

Consider `Cc1nn([C@H](C)[C@](O)(Cn2cncn2)c2ccc(F)cc2F)c2ccc([N+](=O)[O-])cc12`, for which the MIC80 amounted to 0.25 µg/mL (≈ 0.584 µM) in assay [1]; 16 µg/mL (≈ 37.3 µM) in [2]; 8 µg/mL (≈ 18.7 µM) in [3]; 16 µg/mL (≈ 37.3 µM) in [4]; 8 µg/mL (≈ 18.7 µM) in [5]; 0.125 µg/mL (≈ 0.292 µM) in [6]. Also, the MIC80 in [7] worked out at 4 µg/mL (≈ 9.34 µM); in [8], 0.015 µg/mL (≈ 0.035 µM); in assay [9] it was 0.063 µg/mL (≈ 0.147 µM); in [10], 4 µg/mL (≈ 9.34 µM); in [11], 4 µg/mL (≈ 9.34 µM).

Turning to `Cc1nn([C@H](C)[C@](O)(Cn2cncn2)c2ccc(F)cc2F)c2ccc(Cl)cc12`, the MIC80 in [1] was 0.25 µg/mL (≈ 0.598 µM); in [2], > 16 µg/mL; in assay [3], 4 µg/mL (≈ 9.57 µM); in [4], > 16 µg/mL; in assay [5] it was > 16 µg/mL; in assay [6], 0.125 µg/mL (≈ 0.299 µM). The MIC80 in assay [7] was 2 µg/mL (≈ 4.79 µM); in [8], ≤ 0.015 µg/mL; in [9] it was ≤ 0.015 µg/mL; in assay [10] it was > 16 µg/mL; in assay [11], 1 µg/mL (≈ 2.39 µM).

For `C[C@@H]1[C@H](O)[C@@H](C)/C=C/C=C/C=C/C=C/C=C/C=C/C=C/[C@H](O[C@@H]2O[C@H](C)[C@@H](O)[C@H](N)[C@@H]2O)C[C@@H]2O[C@](O)(C[C@@H](O)C[C@@H](O)[C@H](O)CC[C@@H](O)C[C@@H](O)CC(=O)O[C@H]1C)C[C@H](O)[C@H]2C(=O)O` [AMPHOTERICIN B], the MIC80 came out at 4 µg/mL (≈ 4.33 µM) in assay [2], 0.5 µg/mL (≈ 0.541 µM) in assay [4], 2 µg/mL (≈ 2.16 µM) in assay [5] and 1 µg/mL (≈ 1.08 µM) in assay [10].

Turning to `NN(Cc1ccccc1)C[C@](O)(Cn1cncn1)c1ccc(F)cc1F`, the MIC80 in [8] amounted to 1 µg/mL (≈ 2.78 µM).

As to `C[C@@H](n1ncc2cc(N)ccc21)[C@](O)(Cn1cncn1)c1ccc(F)cc1F`, the MIC80 in [1] is 1 µg/mL (≈ 2.6 µM); in [3], > 8 µg/mL; in [6], 2 µg/mL (≈ 5.2 µM); in [7], 8 µg/mL (≈ 20.8 µM); in [8], 0.25 µg/mL (≈ 0.65 µM); in assay [9] it was 0.25 µg/mL (≈ 0.65 µM). In [11], this molecule yielded an MIC80 of 1 µg/mL (≈ 2.6 µM).
